{
  "source": "patent US10206394B2",
  "about": "“Herbicidal compounds” (Syngenta Participations AG, priority 2014, dated 2019)",
  "test_in_all_cases": "Glasshouse assay for herbicidal activity (pre- and post-emergence), percentage phytotoxicity",
  "assay_type_in_all_cases": "in vivo",
  "key": {"[1]": {"tested_on": "Alopecurus myosuroides (ALOMY)", "conditions": "Alopecurus myosuroides", "procedure,_shortened": "(§1)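 Sow seed in standard soil in pots; apply test herbicide after 1 day (PRE) or about 12 days (POST). Grow on in the glasshouse, watering twice daily, cool-season species at 20/16 °C and warm-season at 24/18 °C. Score visible damage (0–100%) at 20 or 15 DAA respectively.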"}, "Avena fatua (AVEFA)": {"tested_on": "Avena fatua (AVEFA)", "conditions": "Avena fatua", "procedure,_shortened": "as §1"}, "Lolium perenne (LOLPE)": {"tested_on": "Lolium perenne (LOLPE)", "conditions": "Lolium perenne", "procedure,_shortened": "as §1"}, "[2]": {"tested_on": "Echinochloa crus-galli (ECHCG)", "conditions": "Echinochloa crus-galli", "procedure,_shortened": "as §1"}},
  "note": "Read-outs that look alike come from different tables or passages of the source.",
  "data": [
    {"smiles": "C=C(C)CNC(=O)CC1CC(=O)C(c2c(C)cc(-c3ncc(C#N)cn3)cc2C)C1=O", "note": "(centres unmarked) [Compound B287]", "values": [
      {"measurement": "pest or weed control at 250 g/ha", "setting": "[1]; post-emergence, 360 h, POST-emergence, rate 250 g/ha, visual score 15 DAA (100%=total damage, 0%=no damage), read-out: Post-emergence herbicidal activity (percentage phytotoxicity) ALOMY POST", "result": 90, "unit": "%"},
      {"measurement": "pest or weed control at 250 g/ha", "setting": "[1]; pre-emergence, 480 h, PRE-emergence, rate 250 g/ha, visual score 20 DAA (100%=total damage, 0%=no damage), read-out: Pre-emergence herbicidal activity (percentage phytotoxicity) ALOMY PRE", "result": 90, "unit": "%"},
      {"measurement": "pest or weed control at 250 g/ha", "setting": "Avena fatua (AVEFA); post-emergence, 360 h, POST-emergence, rate 250 g/ha, visual score 15 DAA (100%=total damage, 0%=no damage), read-out: Post-emergence herbicidal activity (percentage phytotoxicity) AVEFA POST", "result": 100, "unit": "%"},
      {"measurement": "pest or weed control at 250 g/ha", "setting": "Avena fatua (AVEFA); pre-emergence, 480 h, PRE-emergence, rate 250 g/ha, visual score 20 DAA (100%=total damage, 0%=no damage), read-out: Pre-emergence herbicidal activity (percentage phytotoxicity) AVEFA PRE", "result": 90, "unit": "%"},
      {"measurement": "pest or weed control at 250 g/ha", "setting": "Lolium perenne (LOLPE); post-emergence, 360 h, POST-emergence, rate 250 g/ha, visual score 15 DAA (100%=total damage, 0%=no damage), read-out: Post-emergence herbicidal activity (percentage phytotoxicity) LOLPE POST", "result": 90, "unit": "%"},
      {"measurement": "pest or weed control at 250 g/ha", "setting": "Lolium perenne (LOLPE); pre-emergence, 480 h, PRE-emergence, rate 250 g/ha, visual score 20 DAA (100%=total damage, 0%=no damage), read-out: Pre-emergence herbicidal activity (percentage phytotoxicity) LOLPE PRE", "result": 90, "unit": "%"},
      {"measurement": "pest or weed control at 250 g/ha", "setting": "[2]; post-emergence, 360 h, POST-emergence, rate 250 g/ha, visual score 15 DAA (100%=total damage, 0%=no damage), read-out: Post-emergence herbicidal activity (percentage phytotoxicity) ECHCG POST", "result": 100, "unit": "%"},
      {"measurement": "pest or weed control at 250 g/ha", "setting": "[2]; pre-emergence, 480 h, PRE-emergence, rate 250 g/ha, visual score 20 DAA (100%=total damage, 0%=no damage), read-out: Pre-emergence herbicidal activity (percentage phytotoxicity) ECHCG PRE", "result": 100, "unit": "%"}
    ]},
    {"smiles": "Cc1cc(-c2ncc(Cl)cn2)cc(C)c1C1C(=O)CC(CC(=O)NC/C=C/Cl)C1=O", "note": "(centres unmarked) [Compound B352]", "values": [
      {"measurement": "pest or weed control at 250 g/ha", "setting": "[1]; post-emergence, 360 h, Rate 250 g/ha, post-emergence, visual assessment 15 DAA, 100%=total damage, 0%=no damage, read-out: Post-emergence herbicidal activity (percentage phytotoxicity) ALOMY POST", "result": 100, "unit": "%"},
      {"measurement": "pest or weed control at 250 g/ha", "setting": "[1]; pre-emergence, 480 h, Rate 250 g/ha, pre-emergence, visual assessment 20 DAA, 100%=total damage, 0%=no damage, read-out: Pre-emergence herbicidal activity (percentage phytotoxicity) ALOMY PRE", "result": 100, "unit": "%"},
      {"measurement": "pest or weed control at 250 g/ha", "setting": "Avena fatua (AVEFA); post-emergence, 360 h, Rate 250 g/ha, post-emergence, visual assessment 15 DAA, 100%=total damage, 0%=no damage, read-out: Post-emergence herbicidal activity (percentage phytotoxicity) AVEFA POST", "result": 90, "unit": "%"},
      {"measurement": "pest or weed control at 250 g/ha", "setting": "Avena fatua (AVEFA); pre-emergence, 480 h, Rate 250 g/ha, pre-emergence, visual assessment 20 DAA, 100%=total damage, 0%=no damage, read-out: Pre-emergence herbicidal activity (percentage phytotoxicity) AVEFA PRE", "result": 90, "unit": "%"},
      {"measurement": "pest or weed control at 250 g/ha", "setting": "Lolium perenne (LOLPE); post-emergence, 360 h, Rate 250 g/ha, post-emergence, visual assessment 15 DAA, 100%=total damage, 0%=no damage, read-out: Post-emergence herbicidal activity (percentage phytotoxicity) LOLPE POST", "result": 100, "unit": "%"},
      {"measurement": "pest or weed control at 250 g/ha", "setting": "Lolium perenne (LOLPE); pre-emergence, 480 h, Rate 250 g/ha, pre-emergence, visual assessment 20 DAA, 100%=total damage, 0%=no damage, read-out: Pre-emergence herbicidal activity (percentage phytotoxicity) LOLPE PRE", "result": 90, "unit": "%"},
      {"measurement": "pest or weed control at 250 g/ha", "setting": "[2]; post-emergence, 360 h, Rate 250 g/ha, post-emergence, visual assessment 15 DAA, 100%=total damage, 0%=no damage, read-out: Post-emergence herbicidal activity (percentage phytotoxicity) ECHCG POST", "result": 100, "unit": "%"},
      {"measurement": "pest or weed control at 250 g/ha", "setting": "[2]; pre-emergence, 480 h, Rate 250 g/ha, pre-emergence, visual assessment 20 DAA, 100%=total damage, 0%=no damage, read-out: Pre-emergence herbicidal activity (percentage phytotoxicity) ECHCG PRE", "result": 100, "unit": "%"}
    ]},
    {"smiles": "Cc1cc(-c2ncc(F)cc2F)cc(C)c1C1C(=O)CC(CC(N)=O)C1=O", "note": "(centres unmarked) [Compound B54]", "values": [
      {"measurement": "pest or weed control at 250 g/ha", "setting": "[1]; post-emergence, 360 h, 250 g/ha, post-emergence, 15 DAA, visual assessment (100%=total damage, 0%=no damage), read-out: Post-emergence herbicidal activity (percentage phytotoxicity) ALOMY POST", "result": 100, "unit": "%"},
      {"measurement": "pest or weed control at 250 g/ha", "setting": "[1]; pre-emergence, 480 h, 250 g/ha, pre-emergence, 20 DAA, visual assessment (100%=total damage, 0%=no damage), read-out: Pre-emergence herbicidal activity (percentage phytotoxicity) ALOMY PRE", "result": 80, "unit": "%"},
      {"measurement": "pest or weed control at 250 g/ha", "setting": "Avena fatua (AVEFA); post-emergence, 360 h, 250 g/ha, post-emergence, 15 DAA, visual assessment (100%=total damage, 0%=no damage), read-out: Post-emergence herbicidal activity (percentage phytotoxicity) AVEFA POST", "result": 100, "unit": "%"},
      {"measurement": "pest or weed control at 250 g/ha", "setting": "Avena fatua (AVEFA); pre-emergence, 480 h, 250 g/ha, pre-emergence, 20 DAA, visual assessment (100%=total damage, 0%=no damage), read-out: Pre-emergence herbicidal activity (percentage phytotoxicity) AVEFA PRE", "result": 80, "unit": "%"},
      {"measurement": "pest or weed control at 250 g/ha", "setting": "Lolium perenne (LOLPE); post-emergence, 360 h, 250 g/ha, post-emergence, 15 DAA, visual assessment (100%=total damage, 0%=no damage), read-out: Post-emergence herbicidal activity (percentage phytotoxicity) LOLPE POST", "result": 100, "unit": "%"},
      {"measurement": "pest or weed control at 250 g/ha", "setting": "Lolium perenne (LOLPE); pre-emergence, 480 h, 250 g/ha, pre-emergence, 20 DAA, visual assessment (100%=total damage, 0%=no damage), read-out: Pre-emergence herbicidal activity (percentage phytotoxicity) LOLPE PRE", "result": 80, "unit": "%"},
      {"measurement": "pest or weed control at 250 g/ha", "setting": "[2]; post-emergence, 360 h, 250 g/ha, post-emergence, 15 DAA, visual assessment (100%=total damage, 0%=no damage), read-out: Post-emergence herbicidal activity (percentage phytotoxicity) ECHCG POST", "result": 100, "unit": "%"},
      {"measurement": "pest or weed control at 250 g/ha", "setting": "[2]; pre-emergence, 480 h, 250 g/ha, pre-emergence, 20 DAA, visual assessment (100%=total damage, 0%=no damage), read-out: Pre-emergence herbicidal activity (percentage phytotoxicity) ECHCG PRE", "result": 80, "unit": "%"}
    ]},
    {"smiles": "Cc1cc(-c2ccc(C#N)cc2)cc(C)c1C1C(=O)CC(CC(=O)NC(C)C)C1=O", "note": "(centres unmarked) [Compound A37]", "values": [
      {"measurement": "pest or weed control at 250 g/ha", "setting": "[1]; post-emergence, 360 h, Rate 250 g/ha, post-emergence, assessed visually 15 DAA, 100%=total damage, 0%=no damage, read-out: Post-emergence herbicidal activity (percentage phytotoxicity) ALOMY POST", "result": 80, "unit": "%"},
      {"measurement": "pest or weed control at 250 g/ha", "setting": "[1]; pre-emergence, 480 h, Rate 250 g/ha, pre-emergence, assessed visually 20 DAA, 100%=total damage, 0%=no damage, read-out: Pre-emergence herbicidal activity (percentage phytotoxicity) ALOMY PRE", "result": 90, "unit": "%"},
      {"measurement": "pest or weed control at 250 g/ha", "setting": "Avena fatua (AVEFA); post-emergence, 360 h, Rate 250 g/ha, post-emergence, assessed visually 15 DAA, 100%=total damage, 0%=no damage, read-out: Post-emergence herbicidal activity (percentage phytotoxicity) AVEFA POST", "result": 100, "unit": "%"},
      {"measurement": "pest or weed control at 250 g/ha", "setting": "Avena fatua (AVEFA); pre-emergence, 480 h, Rate 250 g/ha, pre-emergence, assessed visually 20 DAA, 100%=total damage, 0%=no damage, read-out: Pre-emergence herbicidal activity (percentage phytotoxicity) AVEFA PRE", "result": 90, "unit": "%"},
      {"measurement": "pest or weed control at 250 g/ha", "setting": "Lolium perenne (LOLPE); post-emergence, 360 h, Rate 250 g/ha, post-emergence, assessed visually 15 DAA, 100%=total damage, 0%=no damage, read-out: Post-emergence herbicidal activity (percentage phytotoxicity) LOLPE POST", "result": 80, "unit": "%"},
      {"measurement": "pest or weed control at 250 g/ha", "setting": "Lolium perenne (LOLPE); pre-emergence, 480 h, Rate 250 g/ha, pre-emergence, assessed visually 20 DAA, 100%=total damage, 0%=no damage, read-out: Pre-emergence herbicidal activity (percentage phytotoxicity) LOLPE PRE", "result": 100, "unit": "%"},
      {"measurement": "pest or weed control at 250 g/ha", "setting": "[2]; post-emergence, 360 h, Rate 250 g/ha, post-emergence, assessed visually 15 DAA, 100%=total damage, 0%=no damage, read-out: Post-emergence herbicidal activity (percentage phytotoxicity) ECHCG POST", "result": 90, "unit": "%"},
      {"measurement": "pest or weed control at 250 g/ha", "setting": "[2]; pre-emergence, 480 h, Rate 250 g/ha, pre-emergence, assessed visually 20 DAA, 100%=total damage, 0%=no damage, read-out: Pre-emergence herbicidal activity (percentage phytotoxicity) ECHCG PRE", "result": 100, "unit": "%"}
    ]}
  ]
}
